These molecules were tested against Glutamate receptor ionotropic, NMDA 2B (Rattus norvegicus, UniProt Q00960) (assay: Displacement of [3H]ifenprodil from Wistar rat GluN2B receptor after 2 hrs by liquid scintillation spectrometry).
Sequence of Glutamate receptor ionotropic, NMDA 2B (Q00960 whole entry): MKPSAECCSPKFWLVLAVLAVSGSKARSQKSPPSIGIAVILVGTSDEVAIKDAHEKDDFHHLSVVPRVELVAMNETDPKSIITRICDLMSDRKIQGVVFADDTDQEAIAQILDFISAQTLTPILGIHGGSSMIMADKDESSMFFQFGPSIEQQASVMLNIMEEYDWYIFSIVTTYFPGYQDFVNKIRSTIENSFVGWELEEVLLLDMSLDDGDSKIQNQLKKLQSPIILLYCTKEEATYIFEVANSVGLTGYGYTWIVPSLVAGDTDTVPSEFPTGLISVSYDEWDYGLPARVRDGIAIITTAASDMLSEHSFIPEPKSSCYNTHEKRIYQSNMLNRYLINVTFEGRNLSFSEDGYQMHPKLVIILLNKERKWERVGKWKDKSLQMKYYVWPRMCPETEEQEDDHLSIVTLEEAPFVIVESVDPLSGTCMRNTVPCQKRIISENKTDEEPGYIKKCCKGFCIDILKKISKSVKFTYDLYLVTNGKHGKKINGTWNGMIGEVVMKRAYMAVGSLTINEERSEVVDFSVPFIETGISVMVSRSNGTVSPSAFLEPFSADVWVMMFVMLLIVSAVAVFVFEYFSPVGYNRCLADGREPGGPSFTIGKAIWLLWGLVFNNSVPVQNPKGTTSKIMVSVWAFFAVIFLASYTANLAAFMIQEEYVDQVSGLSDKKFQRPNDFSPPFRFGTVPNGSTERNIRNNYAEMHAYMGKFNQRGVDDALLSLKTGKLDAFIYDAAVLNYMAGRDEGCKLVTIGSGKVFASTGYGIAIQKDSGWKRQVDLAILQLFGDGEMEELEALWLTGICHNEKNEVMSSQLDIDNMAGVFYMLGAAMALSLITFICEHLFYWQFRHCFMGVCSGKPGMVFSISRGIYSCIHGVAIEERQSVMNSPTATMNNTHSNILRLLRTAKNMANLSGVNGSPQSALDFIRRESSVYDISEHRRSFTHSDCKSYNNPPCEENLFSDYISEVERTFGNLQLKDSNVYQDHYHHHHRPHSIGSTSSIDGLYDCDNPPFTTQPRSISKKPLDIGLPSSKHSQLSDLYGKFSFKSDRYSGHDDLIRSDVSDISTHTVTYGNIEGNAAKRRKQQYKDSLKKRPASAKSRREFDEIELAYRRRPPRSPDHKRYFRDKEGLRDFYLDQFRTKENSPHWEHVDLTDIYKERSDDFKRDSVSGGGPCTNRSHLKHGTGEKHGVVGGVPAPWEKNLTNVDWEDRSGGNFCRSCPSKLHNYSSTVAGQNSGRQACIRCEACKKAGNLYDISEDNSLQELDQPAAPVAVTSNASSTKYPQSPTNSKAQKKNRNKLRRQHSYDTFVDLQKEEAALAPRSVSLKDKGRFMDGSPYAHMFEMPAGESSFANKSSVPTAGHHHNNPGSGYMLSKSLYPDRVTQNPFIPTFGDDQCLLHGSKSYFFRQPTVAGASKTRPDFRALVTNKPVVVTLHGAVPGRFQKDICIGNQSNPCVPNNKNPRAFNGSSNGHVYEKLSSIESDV

Question: For `COc1cccc(CNC(=N)c2ccc(OC(F)(F)F)cc2)c1OC`, which Ki is on record?
Answer: The Ki was 303 nM.

Question: Which Ki does the source give for `N=C(NCc1ccc2c(c1)OCO2)c1ccc(OC(F)(F)F)cc1` here?
Answer: Its Ki is 26.3 nM.

Question: How did the Ki turn out when `COc1cc(CN=C(N)c2ccc(OC(F)(F)F)cc2)cc(OC)c1OC` was run?
Answer: Its Ki is 1140 nM.

Question: Which Ki does the source give for `COc1ccc(CNC(=N)c2ccc(OC(F)(F)F)cc2)c(OC)c1` here?
Answer: The Ki was 16.2 nM.

Question: For `COc1cc(CNC(=N)c2ccc(OC(F)(F)F)cc2)cc(OC)c1`, which Ki is on record?
Answer: Its Ki is 22.9 nM.

Question: For `N=C(NCc1cccc(F)c1)c1ccc(OC(F)(F)F)cc1`, which Ki is on record?
Answer: The Ki was 2.86 nM.

Question: Which Ki does the source give for `COc1ccc(OC)c(CNC(=N)c2ccc(OC(F)(F)F)cc2)c1` here?
Answer: The Ki was 4.29 nM.

Question: Which Ki does the source give for `NC(=NCc1ccccc1C(F)(F)F)c1ccc(OC(F)(F)F)cc1` here?
Answer: The Ki was 8.09 nM.

Question: For `N=C(NCc1ccc(F)c(F)c1)c1ccc(OC(F)(F)F)cc1`, which Ki is on record?
Answer: Its Ki is 8.25 nM.

Question: `N=C(NCC12C3C4C5C3C1C5C42)c1ccc(OC(F)(F)F)cc1` (stereo not drawn) was tested. Which Ki did it give?
Answer: The Ki was 150 nM.

Question: With `NC(=NCc1cc(F)cc(F)c1)c1ccc(OC(F)(F)F)cc1` as the molecule, how does the Ki read?
Answer: Its Ki is 3.58 nM.

Question: Which Ki does the source give for `NC(=NCC12CC3CC(CC(C3)C1)C2)c1ccc(OC(F)(F)F)cc1` here?
Answer: Its Ki is 4810 nM.

Question: Which Ki does the source give for `COc1ccccc1C/N=C(\N)c1ccc(OC(F)(F)F)cc1` here?
Answer: Its Ki is 2.09 nM.

Reference: ChEMBL document CHEMBL3112562, “Structure-activity relationships of N-substituted 4-(trifluoromethoxy)benzamidines with affinity for GluN2B-containing NMDA receptors” (Bioorg Med Chem Lett, 2014)
